Laboratory results: ChEMBL document CHEMBL1201862, “PubChem BioAssay data set” (2004)
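Step 1: Grow cells in 96-well plates. Step 2: Expose to compound for 48 hours at 5 concentrations. Step 3: Interpolate endpoints linearly; if unreached, use highest concentration. GI50 marks 50% less growth.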 Activity calls are given as the source filed them. Cut-off read from the data, not from the text of the source: active = GI50 up to about 1.1 µM and inactive = higher.

Assays:
Test in all cases: NCI-60 cell line screen, 48 h
786-0 = test system: 786-0
A498 = test system: A498
A549 = test system: A549
ACHN = test system: ACHN
CAKI-1 = test system: CAKI-1
CCRF-CEM = test system: CCRF-CEM
COLO 205 = test system: COLO 205
DLD-1 = test system: DLD-1
DMS-114 = test system: DMS-114
DMS-273 = test system: DMS-273
EKVX = test system: EKVX
HCC 2998 = test system: HCC 2998
HCT-116 = test system: HCT-116
HOP-18 = test system: HOP-18
HOP-62 = test system: HOP-62
HOP-92 = test system: HOP-92
HT-29 = test system: HT-29
IGROV-1 = test system: IGROV-1
K562 = test system: K562
KM12 = test system: KM12
LOX IMVI = test system: LOX IMVI
LXFL 529 = test system: LXFL 529
M14 = test system: M14
M19-MEL = test system: M19-MEL
MOLT-4 = test system: MOLT-4
Malme-3M = test system: Malme-3M
NCI-H226 = test system: NCI-H226
NCI-H23 = test system: NCI-H23
NCI-H460 = test system: NCI-H460
NCI-H522 = test system: NCI-H522
OVCAR-3 = test system: OVCAR-3
OVCAR-4 = test system: OVCAR-4
OVCAR-5 = test system: OVCAR-5
OVCAR-8 = test system: OVCAR-8
RPMI-8226 = test system: RPMI-8226
RXF 393 = test system: RXF 393
RXF 631 = test system: RXF 631
SF-268 = test system: SF-268
SF-295 = test system: SF-295
SF-539 = test system: SF-539
SK-MEL-28 = test system: SK-MEL-28
SK-MEL-2 = test system: SK-MEL-2
SK-MEL-5 = test system: SK-MEL-5
SK-OV-3 = test system: SK-OV-3
SN12C = test system: SN12C
SNB-19 = test system: SNB-19
SNB-75 = test system: SNB-75
SNB-78 = test system: SNB-78
SR = test system: SR
SW-620 = test system: SW-620
TK-10 = test system: TK-10
U-251 = test system: U-251
UACC-257 = test system: UACC-257
UACC-62 = test system: UACC-62
UO-31 = test system: UO-31
XF498 = test system: XF498
HCT-15 = test system: HCT-15
HL-60 = test system: HL-60
KM-20L2 = test system: KM-20L2

Measured: GI50

Nc1ncnc2c1ncn2COC/C=C/I
inactive: 786-0 > 100 µM | A498 > 100 µM | A549 > 100 µM | ACHN > 100 µM | CAKI-1 > 100 µM | CCRF-CEM 85.3 µM | COLO 205 > 100 µM | DLD-1 > 100 µM | DMS-114 > 100 µM | DMS-273 > 100 µM | EKVX 77.6 µM | HCC 2998 > 100 µM | HCT-116 > 100 µM | HOP-18 14 µM | HOP-62 > 100 µM | HOP-92 > 100 µM | HT-29 > 100 µM | IGROV-1 > 100 µM | K562 > 100 µM | KM12 > 100 µM | LOX IMVI > 100 µM | LXFL 529 > 100 µM | M14 > 100 µM | M19-MEL > 100 µM | MOLT-4 > 100 µM | Malme-3M > 100 µM | NCI-H226 > 100 µM | NCI-H23 > 100 µM | NCI-H460 > 100 µM | NCI-H522 > 100 µM | OVCAR-3 > 100 µM | OVCAR-4 > 100 µM | OVCAR-5 > 100 µM | OVCAR-8 > 100 µM | RPMI-8226 > 100 µM | RXF 393 > 100 µM | RXF 631 > 100 µM | SF-268 > 100 µM | SF-295 > 100 µM | SF-539 > 100 µM | SK-MEL-28 > 100 µM | SK-MEL-2 > 100 µM | SK-MEL-5 > 100 µM | SK-OV-3 > 100 µM | SN12C > 100 µM | SNB-19 > 100 µM | SNB-75 36.7 µM | SNB-78 > 100 µM | SR > 100 µM | SW-620 > 100 µM | TK-10 > 100 µM | U-251 > 100 µM | UACC-257 > 100 µM | UACC-62 > 100 µM | UO-31 > 100 µM | XF498 > 100 µM

O=C(CC(=O)Nc1cccc(Cl)c1)NNCC(=O)Nc1nnc(-c2ccccc2)s1
inactive: 786-0 16.4 µM | A498 20.8 µM | A549 > 100 µM | ACHN 39.8 µM | CAKI-1 > 100 µM | COLO 205 > 100 µM | DLD-1 58.6 µM | DMS-114 24.4 µM | DMS-273 38.4 µM | EKVX 57.3 µM | HCC 2998 > 100 µM | HCT-116 24.8 µM | HL-60 25.7 µM | HOP-18 3.62 µM | HOP-62 21.9 µM | HT-29 80 µM | IGROV-1 > 100 µM | K562 27.4 µM | KM-20L2 > 100 µM | KM12 > 100 µM | LOX IMVI 43.2 µM | LXFL 529 41.3 µM | M14 30.4 µM | M19-MEL > 100 µM | MOLT-4 34.9 µM | NCI-H226 22.9 µM | NCI-H23 94.6 µM | NCI-H460 11.1 µM | NCI-H522 64.1 µM | OVCAR-3 32.7 µM | OVCAR-4 2.46 µM | OVCAR-5 > 100 µM | OVCAR-8 20.8 µM | RPMI-8226 14.2 µM | RXF 631 > 100 µM | SF-268 31.8 µM | SF-295 > 100 µM | SF-539 > 100 µM | SK-MEL-28 > 100 µM | SK-MEL-2 > 100 µM | SK-MEL-5 45.8 µM | SK-OV-3 26.4 µM | SN12C > 100 µM | SNB-19 36 µM | SNB-75 9.38 µM | SNB-78 97.9 µM | SR 41.2 µM | SW-620 39.4 µM | TK-10 45.2 µM | U-251 34 µM | UACC-257 99.1 µM | UACC-62 62.4 µM | UO-31 45 µM | XF498 17.7 µM
39.3 µM: HCT-15
